Measurements: ChEMBL document CHEMBL5465560, “Selectivity Literature for EUbOPEN Chemogenomic Library” (2024)
One block for each compound: values may come before it.

What was measured:
[1] = biological target: Myosin light chain kinase, smooth muscle (Homo sapiens, UniProt Q15746); assay: Selectivity interaction (KinomeScan (DiscoverX)) EUB0000607a MYLK; conditions: at 10 µM
[2] = biological target: T1, Inhibitor of nuclear factor kappa-B kinase subunit beta (Homo sapiens) (UniProt O14920); assay: Selectivity interaction (ActivX KiNativ screen (ex vivo kinase selectivity in human PBMCs)) EUB0001619a IKBKB; type: cell-based; conditions: PBMC, at 1 µM
T1 sequence (whole entry): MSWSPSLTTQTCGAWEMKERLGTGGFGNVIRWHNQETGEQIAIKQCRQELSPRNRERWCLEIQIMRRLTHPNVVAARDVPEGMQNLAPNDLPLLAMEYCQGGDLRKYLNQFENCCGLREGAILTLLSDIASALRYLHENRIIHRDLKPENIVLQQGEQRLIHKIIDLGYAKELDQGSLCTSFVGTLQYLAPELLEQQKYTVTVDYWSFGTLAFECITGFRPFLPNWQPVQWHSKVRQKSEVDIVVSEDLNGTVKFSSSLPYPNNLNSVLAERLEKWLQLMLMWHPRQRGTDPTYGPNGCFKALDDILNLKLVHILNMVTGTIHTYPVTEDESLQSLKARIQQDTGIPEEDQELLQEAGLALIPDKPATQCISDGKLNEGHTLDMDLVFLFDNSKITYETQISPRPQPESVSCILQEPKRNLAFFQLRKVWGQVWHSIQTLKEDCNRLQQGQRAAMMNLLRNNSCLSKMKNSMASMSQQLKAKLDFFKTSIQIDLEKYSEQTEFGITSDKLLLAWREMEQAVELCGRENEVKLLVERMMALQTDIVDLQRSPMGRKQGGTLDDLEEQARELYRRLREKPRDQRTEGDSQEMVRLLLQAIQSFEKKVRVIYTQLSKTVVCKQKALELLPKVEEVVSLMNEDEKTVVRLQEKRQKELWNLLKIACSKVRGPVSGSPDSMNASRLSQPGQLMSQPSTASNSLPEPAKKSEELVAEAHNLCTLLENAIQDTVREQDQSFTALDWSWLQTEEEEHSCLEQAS

[3] = biological target: Macrophage-stimulating protein receptor (Homo sapiens, UniProt Q04912); assay: Selectivity interaction (KinomeScan (DiscoverX)) EUB0000045b MST1R
[4] = biological target: T2, Discoidin domain-containing receptor 2 (Homo sapiens) (UniProt Q16832); assay: Selectivity interaction (Kinase panel (Invitrogen)) EUB0000639a DDR2; conditions: at 200 nM
T2 sequence (whole entry): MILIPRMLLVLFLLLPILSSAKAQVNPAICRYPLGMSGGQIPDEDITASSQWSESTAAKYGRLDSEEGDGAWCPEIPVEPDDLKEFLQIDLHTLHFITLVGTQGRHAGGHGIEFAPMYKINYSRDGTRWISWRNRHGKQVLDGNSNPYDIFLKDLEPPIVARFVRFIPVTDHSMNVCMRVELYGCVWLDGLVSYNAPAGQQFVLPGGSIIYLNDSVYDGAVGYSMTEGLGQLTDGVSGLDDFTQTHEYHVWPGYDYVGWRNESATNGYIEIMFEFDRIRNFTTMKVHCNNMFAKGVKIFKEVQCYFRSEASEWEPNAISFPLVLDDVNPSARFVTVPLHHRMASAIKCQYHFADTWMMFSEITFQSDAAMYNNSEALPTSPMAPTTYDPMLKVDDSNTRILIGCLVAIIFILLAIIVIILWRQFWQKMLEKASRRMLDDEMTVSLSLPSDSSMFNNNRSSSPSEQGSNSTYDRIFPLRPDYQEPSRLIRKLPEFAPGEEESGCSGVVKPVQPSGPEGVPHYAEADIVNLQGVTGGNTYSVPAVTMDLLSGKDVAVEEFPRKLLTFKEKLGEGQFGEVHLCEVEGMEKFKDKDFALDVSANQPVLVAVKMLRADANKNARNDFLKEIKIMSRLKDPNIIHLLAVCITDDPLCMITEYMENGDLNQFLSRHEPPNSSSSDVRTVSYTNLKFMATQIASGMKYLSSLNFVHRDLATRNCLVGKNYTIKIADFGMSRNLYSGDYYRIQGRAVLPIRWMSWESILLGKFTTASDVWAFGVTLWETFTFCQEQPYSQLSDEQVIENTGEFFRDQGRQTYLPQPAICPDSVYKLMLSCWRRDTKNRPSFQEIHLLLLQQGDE

[5] = biological target: T3, Ephrin type-A receptor 6 (Homo sapiens) (UniProt Q9UF33); assay: Selectivity interaction (ProQinase) EUB0000171b EPHA6
T3 sequence (whole entry): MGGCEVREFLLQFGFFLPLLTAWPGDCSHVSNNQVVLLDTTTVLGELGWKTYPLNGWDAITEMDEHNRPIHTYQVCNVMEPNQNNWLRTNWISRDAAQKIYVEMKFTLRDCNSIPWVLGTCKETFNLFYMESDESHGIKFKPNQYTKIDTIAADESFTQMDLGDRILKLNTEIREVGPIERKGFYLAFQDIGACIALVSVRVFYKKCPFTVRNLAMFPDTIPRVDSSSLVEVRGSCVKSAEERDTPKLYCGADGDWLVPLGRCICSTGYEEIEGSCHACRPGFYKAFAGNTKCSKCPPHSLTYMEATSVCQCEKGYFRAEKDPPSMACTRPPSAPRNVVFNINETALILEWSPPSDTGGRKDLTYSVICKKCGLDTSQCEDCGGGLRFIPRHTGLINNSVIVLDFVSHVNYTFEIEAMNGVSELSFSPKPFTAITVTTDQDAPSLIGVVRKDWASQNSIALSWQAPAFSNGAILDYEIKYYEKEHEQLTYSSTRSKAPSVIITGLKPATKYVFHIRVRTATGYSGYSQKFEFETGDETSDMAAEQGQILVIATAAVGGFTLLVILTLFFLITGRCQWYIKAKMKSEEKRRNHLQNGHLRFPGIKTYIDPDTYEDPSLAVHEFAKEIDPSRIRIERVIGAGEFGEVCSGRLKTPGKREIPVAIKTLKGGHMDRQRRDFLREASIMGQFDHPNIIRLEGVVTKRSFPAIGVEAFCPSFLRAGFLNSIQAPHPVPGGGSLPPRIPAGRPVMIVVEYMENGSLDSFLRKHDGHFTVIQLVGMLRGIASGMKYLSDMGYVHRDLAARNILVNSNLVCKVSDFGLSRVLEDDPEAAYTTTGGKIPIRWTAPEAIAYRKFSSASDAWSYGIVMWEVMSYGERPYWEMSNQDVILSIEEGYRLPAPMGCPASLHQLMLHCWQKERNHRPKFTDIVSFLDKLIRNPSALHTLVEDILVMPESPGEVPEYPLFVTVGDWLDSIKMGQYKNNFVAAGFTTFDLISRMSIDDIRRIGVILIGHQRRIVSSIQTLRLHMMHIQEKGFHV

[6] = biological target: Phosphatidylinositol 4-kinase type 2-beta (Homo sapiens) (UniProt Q8TCG2); assay: Selectivity interaction (Adapta Assay) EUB0001632a PI4K2B; conditions: at 10 µM
[7] = biological target: Serine/threonine-protein kinase pim-2 (Homo sapiens, UniProt Q9P1W9); assay: Selectivity interaction (KinomeScan (DiscoverX)) EUB0000695a PIM2; conditions: at 100 nM
Sequence of Serine/threonine-protein kinase pim-2 (Q9P1W9 whole entry, looked up): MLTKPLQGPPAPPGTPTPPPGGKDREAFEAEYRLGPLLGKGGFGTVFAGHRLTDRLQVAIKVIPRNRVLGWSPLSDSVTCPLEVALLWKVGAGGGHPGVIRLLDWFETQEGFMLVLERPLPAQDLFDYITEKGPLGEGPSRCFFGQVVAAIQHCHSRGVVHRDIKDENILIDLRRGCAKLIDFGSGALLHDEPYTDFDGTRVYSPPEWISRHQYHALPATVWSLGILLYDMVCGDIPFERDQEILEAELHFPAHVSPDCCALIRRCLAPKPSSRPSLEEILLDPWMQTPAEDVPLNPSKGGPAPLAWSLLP

Sequence of Macrophage-stimulating protein receptor (Q04912 25-304 limits assumed): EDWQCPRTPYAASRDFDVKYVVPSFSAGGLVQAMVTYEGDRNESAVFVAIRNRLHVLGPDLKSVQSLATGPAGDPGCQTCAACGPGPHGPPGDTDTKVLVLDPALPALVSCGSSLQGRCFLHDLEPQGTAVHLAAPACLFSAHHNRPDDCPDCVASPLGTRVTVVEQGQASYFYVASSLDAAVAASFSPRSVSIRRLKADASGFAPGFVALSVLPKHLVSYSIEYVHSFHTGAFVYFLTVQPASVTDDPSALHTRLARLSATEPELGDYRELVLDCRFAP
Sequence of Macrophage-stimulating protein receptor (Q04912 310-1400 limits assumed): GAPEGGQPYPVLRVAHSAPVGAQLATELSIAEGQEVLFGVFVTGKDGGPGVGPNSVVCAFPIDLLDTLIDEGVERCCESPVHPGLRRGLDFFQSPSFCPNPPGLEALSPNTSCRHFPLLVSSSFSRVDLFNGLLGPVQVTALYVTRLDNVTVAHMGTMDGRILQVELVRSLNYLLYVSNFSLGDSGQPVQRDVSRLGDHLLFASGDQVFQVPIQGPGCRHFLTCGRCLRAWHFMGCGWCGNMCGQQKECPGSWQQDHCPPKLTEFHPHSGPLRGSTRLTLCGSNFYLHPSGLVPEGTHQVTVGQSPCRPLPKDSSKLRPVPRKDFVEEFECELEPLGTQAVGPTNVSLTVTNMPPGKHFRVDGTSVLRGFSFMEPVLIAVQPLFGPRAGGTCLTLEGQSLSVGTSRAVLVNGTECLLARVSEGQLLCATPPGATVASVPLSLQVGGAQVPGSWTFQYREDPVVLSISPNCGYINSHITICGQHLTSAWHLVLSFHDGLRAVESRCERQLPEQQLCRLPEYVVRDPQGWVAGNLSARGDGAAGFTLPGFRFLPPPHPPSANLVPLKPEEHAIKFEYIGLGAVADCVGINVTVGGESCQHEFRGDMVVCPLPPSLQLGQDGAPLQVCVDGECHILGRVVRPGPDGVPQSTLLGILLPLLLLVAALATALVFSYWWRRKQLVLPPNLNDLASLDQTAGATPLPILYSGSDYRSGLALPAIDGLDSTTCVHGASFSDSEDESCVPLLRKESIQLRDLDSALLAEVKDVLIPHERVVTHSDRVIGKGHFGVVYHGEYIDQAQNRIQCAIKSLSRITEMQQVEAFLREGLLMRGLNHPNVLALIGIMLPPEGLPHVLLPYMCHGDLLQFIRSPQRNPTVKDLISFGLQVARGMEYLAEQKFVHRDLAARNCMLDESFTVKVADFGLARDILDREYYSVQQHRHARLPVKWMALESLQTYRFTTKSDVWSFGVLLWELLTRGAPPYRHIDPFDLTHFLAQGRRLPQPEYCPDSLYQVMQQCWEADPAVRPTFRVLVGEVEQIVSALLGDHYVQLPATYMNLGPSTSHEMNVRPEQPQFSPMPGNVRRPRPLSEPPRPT
Sequence of Phosphatidylinositol 4-kinase type 2-beta (Homo sapiens) (Q8TCG2 whole entry): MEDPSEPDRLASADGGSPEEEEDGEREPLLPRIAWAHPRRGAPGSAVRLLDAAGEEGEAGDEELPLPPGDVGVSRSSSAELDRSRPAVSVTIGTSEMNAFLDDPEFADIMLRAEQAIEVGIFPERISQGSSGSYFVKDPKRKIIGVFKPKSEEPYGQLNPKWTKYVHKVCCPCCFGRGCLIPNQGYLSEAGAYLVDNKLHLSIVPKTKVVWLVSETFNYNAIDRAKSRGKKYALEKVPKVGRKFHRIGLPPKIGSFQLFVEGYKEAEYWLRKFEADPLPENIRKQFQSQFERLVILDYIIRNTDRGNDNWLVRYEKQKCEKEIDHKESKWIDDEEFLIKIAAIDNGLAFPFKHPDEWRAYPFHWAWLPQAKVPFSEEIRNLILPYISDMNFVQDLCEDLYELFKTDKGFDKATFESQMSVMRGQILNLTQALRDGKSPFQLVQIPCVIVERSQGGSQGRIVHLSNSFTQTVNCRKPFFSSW
Sequence of Myosin light chain kinase, smooth muscle (Q15746 whole entry): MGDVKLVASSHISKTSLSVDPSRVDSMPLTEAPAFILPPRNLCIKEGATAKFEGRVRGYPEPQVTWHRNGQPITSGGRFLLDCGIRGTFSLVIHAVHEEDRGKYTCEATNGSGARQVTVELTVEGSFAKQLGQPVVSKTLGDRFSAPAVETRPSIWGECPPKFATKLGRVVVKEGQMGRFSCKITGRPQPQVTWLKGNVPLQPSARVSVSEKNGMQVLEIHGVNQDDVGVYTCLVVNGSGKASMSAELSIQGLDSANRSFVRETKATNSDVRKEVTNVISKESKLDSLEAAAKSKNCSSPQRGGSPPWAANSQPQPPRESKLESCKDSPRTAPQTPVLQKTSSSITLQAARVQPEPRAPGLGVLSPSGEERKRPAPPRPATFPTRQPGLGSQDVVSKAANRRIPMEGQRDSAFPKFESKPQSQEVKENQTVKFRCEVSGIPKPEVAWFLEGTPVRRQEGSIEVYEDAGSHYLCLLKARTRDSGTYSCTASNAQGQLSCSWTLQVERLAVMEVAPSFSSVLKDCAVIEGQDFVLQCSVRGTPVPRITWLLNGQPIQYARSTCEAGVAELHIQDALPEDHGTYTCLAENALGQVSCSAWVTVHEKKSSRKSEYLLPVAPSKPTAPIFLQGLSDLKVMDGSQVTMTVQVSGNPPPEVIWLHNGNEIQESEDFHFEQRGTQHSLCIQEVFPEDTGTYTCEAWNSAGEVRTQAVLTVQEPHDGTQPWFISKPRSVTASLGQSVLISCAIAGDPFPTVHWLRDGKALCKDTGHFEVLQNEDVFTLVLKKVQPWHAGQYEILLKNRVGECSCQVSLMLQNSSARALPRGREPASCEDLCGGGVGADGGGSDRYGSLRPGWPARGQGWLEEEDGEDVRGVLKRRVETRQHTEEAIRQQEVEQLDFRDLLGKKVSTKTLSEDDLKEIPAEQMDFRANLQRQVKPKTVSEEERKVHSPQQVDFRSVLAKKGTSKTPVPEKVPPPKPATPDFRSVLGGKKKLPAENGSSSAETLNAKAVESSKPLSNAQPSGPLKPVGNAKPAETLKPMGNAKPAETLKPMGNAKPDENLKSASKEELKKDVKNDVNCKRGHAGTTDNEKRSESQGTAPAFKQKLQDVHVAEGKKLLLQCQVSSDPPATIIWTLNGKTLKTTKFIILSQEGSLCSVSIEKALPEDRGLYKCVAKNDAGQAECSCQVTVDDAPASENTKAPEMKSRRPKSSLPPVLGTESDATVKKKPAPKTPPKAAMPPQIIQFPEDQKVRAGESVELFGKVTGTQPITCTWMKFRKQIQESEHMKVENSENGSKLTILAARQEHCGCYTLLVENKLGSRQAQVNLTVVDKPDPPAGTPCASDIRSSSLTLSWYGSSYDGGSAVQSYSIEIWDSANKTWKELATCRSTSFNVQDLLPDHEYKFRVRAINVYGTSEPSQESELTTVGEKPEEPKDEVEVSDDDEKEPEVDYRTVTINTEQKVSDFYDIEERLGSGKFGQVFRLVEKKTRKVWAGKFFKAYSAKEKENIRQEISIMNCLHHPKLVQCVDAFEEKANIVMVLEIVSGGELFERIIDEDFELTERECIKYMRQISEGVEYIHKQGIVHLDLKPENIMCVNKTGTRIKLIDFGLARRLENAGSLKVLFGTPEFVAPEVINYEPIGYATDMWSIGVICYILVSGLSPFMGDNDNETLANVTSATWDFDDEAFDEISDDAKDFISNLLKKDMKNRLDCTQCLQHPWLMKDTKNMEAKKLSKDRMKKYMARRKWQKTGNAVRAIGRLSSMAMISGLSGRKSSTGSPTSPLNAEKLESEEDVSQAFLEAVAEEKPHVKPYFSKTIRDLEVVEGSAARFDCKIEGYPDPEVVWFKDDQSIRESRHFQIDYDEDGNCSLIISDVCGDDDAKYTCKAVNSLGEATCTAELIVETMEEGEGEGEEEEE

SMILES: CNC(=O)Nc1ccc(-c2nc(N3CC4CCC(C3)O4)c3cnn(C4CCC5(CC4)OCCO5)c3n2)cc1
% of control [1]: 100%

SMILES: N#Cc1cccc(-c2c[nH]c3ncnc(N4CCOCC4)c23)c1
% of inhibition [2]: -16%

SMILES: C=CC(=O)Nc1cc(-n2c(=O)ccc3cnc4ccc(-c5ccc(NS(C)(=O)=O)cc5)cc4c32)ccc1C
% of control ([3]; at 1 µM): 100%
% of control ([3]; at 10 µM): 100%

% of inhibition [4]: -2.26%
SMILES: CC[C@@H]1[C@H](F)C(=O)N[C@@H]1COc1nccc2cc(C(N)=O)c(OC)cc12 [ZIMLOVISERTIB]

% of control ([5]; at 1 µM): 99%
% of control ([5]; at 5 µM): 100%
SMILES: C=CC(=O)Nc1cccc(C(=O)Nc2ccc(Nc3cc(-c4[nH]c(SC)nc4C)ccn3)cc2)c1

% of inhibition [6]: -1.89%
SMILES: Cn1cc(-n2cnc3c(NCc4nc5cc(Cl)c(Cl)cc5[nH]4)nc(N4CCOCC4)nc32)cn1

SMILES: Cc1cc(F)c(C(=O)Nc2cccc(-c3nncn3C(C)C)n2)cc1-n1cnc(C2CC2)c1
% of control [7]: 78%
